Assays:
[1] = Phage ELISA, bovine enamel binding assay; settings: over 10^10 pfu purified phage, anti-M13 HRP conjugate, TMB, no phage control 0.112
Protocol: (§1) A total of 11 selected phage candidates (Example 32) was used in a phage ELISA experiment. Purified phage lysates were used for binding to the enamel blocks using an anti-M13 phage antibody conjugated to horseradish-peroxidase, followed by the addition of chromogenic agent TMB, obtained from Pierce Biotechnology (Rockford, Ill.). The plates were read at A450 nm.
(§2) For each phage candidate to be tested, the polished and unpolished enamel blocks were incubated for 1 h at room temperature with 200 μL of blocking buffer, consisting of 2% non-fat dry milk (Schleicher & Schuell, Inc.) in TBS. The blocking buffer was removed by aspirating the liquid out of each tube. The tube was rinsed 6 times with wash buffer consisting of TBST-0.05%. The wells were filled with 200 μL of TBST-0.5% containing 1 mg/mL BSA and then 10 μL (over 10^10 pfu) of purified phage stock was added. The samples were incubated at room temperature for 60 min with slow shaking. The non-binding phage was removed by washing 6 times with TBST-0.5%. Then, 100 μL of horseradish peroxidase/anti-M13 antibody conjugate (Amersham USA, Piscataway, N.J.), diluted 1:500 in the blocking buffer, was added and incubated for 1 h at room temperature. The conjugate solution was removed and was washed 6 times with TBST-0.5%. TMB substrate (200 μL), obtained from Pierce Biotechnology (Rockford, Ill.) was added to each well and the color was allowed to develop for 5 to 30 min, typically for 10 min, at room temperature. Then, stop solution (200 μL of 2 M H2SO4) was added to each well and the solution was transferred to a 96-well plate and the A450 was measured using a microplate spectrophotometer (Molecular Devices, Sunnyvale, Calif.). BoEn means bovine enamel and BoEn P means polished bovine enamel.

[2] = Charged multi-block peptide applied to dyed hair (Arianor Sienna Brown, Basic Brown 17) as protective sealant, color loss; set-up: species or system human; key: ΔE color loss vs peptide-free control; ≥3 units = meaningful difference
Protocol: A 0.5% aqueous Arianor Sienna Brown (Basic Brown 17; Sensient Technologies Corp, Milwaukee, Wis.) solution, containing 3% benzyl alcohol and 0.05% diazolidinyl urea (biocide) was prepared. This dye solution was divided into two equal volumes, one unmodified at pH4 and a second portion adjusted to pH ranged from 8.50 to 9.0, using ethanolamine.
Minitresses (1 inch long) of natural white hair (International Hair Importers and Products, Bellerose, N.Y.) were immersed into the acidic or basic dye solutions for 30 minutes, water rinsed and then air dried overnight. The tresses were then cut into individual sections weighing 30-75 mg each. L*, a*, b* values for individual dyed hair tresses were then measured using a spectrophotometer.
Aqueous peptide solutions varying in concentration were adjusted by addition of ethanolamine to pH […] or made slightly basic (pH 8.5-9.0). The 3% benzyl alcohol diluent was also pH adjusted in the same fashion.
Each cavity of a well plate (Thomson Instrument Co. part no. 931565, 24-10 ml wells), contained the assortment of beads (8 beads in all; 4 Novagen Coli Rollers Plating Beads—sterilized (EMD Biosciences, San Diego, Calif.; Catalog No. 71013), 2 BioSpec 6.35 mm glass beads (BioSpec Products, Bartlesville, Okla.; Catalog No. 11079635), and 2 BioSpec 3.2 mm Stainless Steel Bead (Catalog No. 11079132ss).
Target peptide and diluent were added using an automatic pipette. Controls without peptide were made using pH-adjusted diluent only. After several minutes of mixing (VORTEX-GENIE® 2, Scientific Industries, Bohemia, N.Y.) a small dyed hair tress was added to each well and stirred for 30 minutes on the vortex mixer. When stirring was complete, the hair tresses were removed from the wells and rinsed under running deionized water for 20-30 seconds.
The wet hair tresses were inserted into a modified well plate into which holes had been drilled to allow them to be air dried. Once the tresses were dried, colorimetric readings were taken for color loss after water rinse. Hair tresses were reinserted into their respective wells along with beads and 2.5 mL of aqueous 50% Pantene Pro V® shampoo was pipetted onto the hair. The plate was placed into a VWR® VX-2500 Multi-tube Vortexer (VWR, West Chester, Pa.) for 5-15 minutes to simulate shampooing with embrocation. The hair tresses were then rinsed under flowing deionized water and air dried. This cycle was repeated according to the number of simulated embrocation cycles desired. Colorimetric data for color loss was compiled and plotted against peptide free controls. A difference of at least 3 Delta E units verses controls was judged to be sufficient for differentiating peptide performance verses peptide free controls.

[3] = Phage ELISA, bovine polished enamel binding assay; settings: over 10^10 pfu purified phage, anti-M13 HRP conjugate, TMB, no phage control 0.193
Protocol: as §1, §2

[4] = Co-application of multi-block peptide with semi-permanent dye (Arianor Ebony), color retention; set-up: species or system human; key: ΔE of peptide sample minus peptide-free control; larger = better retention; settings: difference in Delta E between peptide sample and peptide free control after 3 embrocation cycles (about 12 manual shampoos); pH 8.5-9.0; >2 benefit, >4 substantial benefit
Protocol: (§3) A 0.5% aqueous solution of Arianor Ebony (Sensient Technologies Corp, Milwaukee, Wis.) containing 3% benzyl alcohol and 0.05% diazolidinyl urea (biocide) was prepared. Dye insolubles were removed by filtration and the pH of the dye solution was adjusted to 8.50-9.0, using ethanolamine.
(§4) Approximately 1 mL of the dye solution was added to selected wells of a 24-well plate (Thomson Instrument Co., Oceanside, Calif.; part # 931565). A multi-block peptide (see Table 12) was dissolved in a solution consisting of 3 wt % benzyl alcohol and 95 wt % water to yield a peptide concentration of 2 wt % or approximately 20 mg/mL. The pH was adjusted to 8.5-9.0 using ethanolamine. The peptide solution was then pipetted into test wells containing dye solution in the amount of 1 mL or 0.2 mL respectively. The total volume in each test well was then adjusted to 2 mL where necessary using 3% aqueous benzyl alcohol (pH adjusted to 8.5-9.0 with ethanolamine). Peptide free controls consisted of 1 mL of dye solution diluted to 2 mL with the pH adjusted aqueous benzyl alcohol solution.
(§5) Baseline […] readings were made on one inch long tresses (see below) using an X-RITE® SP78™ Sphere Spectrophotometer (X-Rite, Inc., Grandville, Mich.), by placing the hair tress into the photosensor and calculating L*, a* and b* parameters representing the photometer response. All measurements were the average of three individual determinations.
(§6) The tresses (potted on one end with resin) of natural white, 85% gray or regular bleached hair (International Hair Importers and Products, Bellerose, N.Y.) were immersed in the peptide/dye solution and the entire well plate was agitated on a VORTEX-GENIE® 2 Mixer (Scientific Industries, Bohemia, N.Y.) at a speed setting of 1 for 30 minutes. The tresses were removed from the wells, rinsed for 30 seconds under flowing deionized water and then air dried.
(§7) The following complement of beads was then added to each well containing a hair tress: (8 beads in all; 4 Novagen Coli Rollers Plating Beads—sterilized (EMD Biosciences, San Diego, Calif.; Catalog No. 71013), 2 BioSpec 6.35 mm glass beads (BioSpec Products, Bartlesville, Okla.; Catalog No. 11079635), and 2 BioSpec 3.2 mm Stainless Steel Bead (Catalog No. 11079132ss).
(§8) Then 2.5 mL of aqueous 50% Pantene Pro V® shampoo (Proctor & Gamble Co., Cincinnati, Ohio) was pipetted into each well. The plate was placed on a VWR® VX-2500 Multi-tube Vortexer (VWR, West Chester, Pa.) for 5 minutes to simulate shampooing with embrocation. The hair tresses were then rinsed under flowing deionized water and air dried. This cycle was repeated two more times except that the length of time was 10 minutes for both subsequent embrocation cycles. (This treatment was previously determined to simulate approximately 12 manual shampoo cycles.) At the conclusion of the third embrocation cycle L*, a* and b* values were measured and Delta E values (ΔE) were calculated using equation 1 below:
(§9) where L*=the lightness variable and a* and b* are the chromaticity coordinates of CIELAB colorspace as defined by the International Commission of Illumination (CIE) (Minolta, Precise Color Communication—Color Control From Feeling to Instrumentation, Minolta Camera Co., 1996).
(§10) The Delta E value (ΔE) indicates color retention relative to the non-dyed hair and larger Delta E values indicate better performance. Values listed in the table represent the difference in Delta E values between the peptide-containing sample and the peptide free control. This difference is indicative of color retention after shampoo or water rinse treatments and positive values indicate better performance relative to the peptide free controls (Table 12).

[5] = Color retention after shampoo treatment, peptide as sealant with Acid Red 33 dye; set-up: species or system human; settings: 0.50 wt % Acid Red 33, peptide 0.25 wt %, 30 min contact, after one shampoo treatment; vs uncolored hair; larger = better color retention; dye alone 19.63
Protocol: The peptides used in this Example were prepared as described in Examples 1-3. The color retention was quantified using a spectrophotometric measurement technique.
A peptide given as SEQ ID NO:41, SEQ ID NO:42, or SEQ ID NO:43 (38 mg), produced via fermentation as described in Examples 1-3, was added to 15 g of an aqueous 0.50 wt % solution of Acid Red 33 (Abbey Color, Philadelphia, Pa.) and the solution was allowed to stir for 1 h. A natural white hair tress (1 cm wide, potted, International Hair Importers & Products Inc., Bellerose, N.Y.) was inserted into a 15 mm×125 mm test tube and 13 mL of the peptide/dye mixture was injected into the test tube. The hair tress was immersed in contact with the colorant solution for 30 min and the colorant solution was agitated using a magnetic stirrer. The tress was removed, allowed to drip dry, and then air dried for 30 min.
The hair tress was then subjected to a water rinse using copious amounts of deionized water, followed by a shampoo treatment with embrocation for 30 seconds. The shampoo treatment involved the application of Pantene Pro-V Sheer Volume shampoo (Proctor & Gamble, Cincinnati, Ohio) to the hair as follows. A quarter-sized drop of the shampoo was distributed evenly over the hair tress and then was massaged aggressively into the hair for 30 sec, after which the hair tress was rinsed with water to remove the shampoo. The hair tress was then dried at room temperature. The entire procedure described above was repeated without the addition of the hair-binding peptide to serve as a control.
The color intensity after the shampoo treatment was measured using an X-Rite® SP78™ Sphere Spectrophotometer (X-Rite, Inc., Grandville, Mich.), by placing the colored hair sample into the photosensor and calculating L*, a* and b* parameters representing the photometer response. An initial baseline L* value was measured for the uncolored hair and all measurements were the average of three individual determinations. Delta E values were calculated using equation 1 below: […]

[6] = Co-application of multi-block peptide with semi-permanent dye (Arianor Ebony), color retention; set-up: species or system human; settings: difference in Delta E between peptide sample and peptide free control after 3 embrocation cycles (about 12 manual shampoos); pH 8.5-9.0; >2 benefit, >4 substantial benefit
Protocol: as §3, §4, §5, §6, §7, §8, §9, §10

In the case of THNMSHFPPSGHPKRTAT [BoEn P8], the “O.D. at 450 nm” value [1] is reported as 2.02.

With “SSNYNYNYNYQYSSR-EGEGER (SSNYNYNYNYQYSSREGEGER; Peptide having affinity for hair) [Dye-1 Anionic]” the “ΔE Loss” value ([2]; pH 4.5, 12 shampoo equivalents) was 1.93 and the “ΔE Loss” value ([2]; pH 8.8, 12 shampoo equivalents) was 0.34.

For NTCQPTKNATPCSA [BoEn P6], the “O.D. at 450 nm” value [1] was 0.83.

For EPPTRTRVNNHTVTVQAQQH [BoEn P2], the “O.D. at 450 nm” value [1] was 0.641.

In the case of SDCTAGLVPPLCAT [BoEn 7], the “O.D. at 450 nm” value [3] is reported as 0.892.

With “SSNYNYNYNYQYSSR-KRKRKD (SSNYNYNYNYQYSSRKRKRKD; Peptide having affinity for hair) [Dye-1 Cationic]” the “ΔE Loss” value ([2]; pH 4.5, 25 shampoo equivalents) was 6 and the “ΔE Loss” value ([2]; pH 8.7, 25 shampoo equivalents) was 3.22.

With GYCLRGDEPAVCSG [BoEn P3] the “O.D. at 450 nm” value [1] was 0.665.

In the case of NFCETQLDLSVCTV [BoEn P5], the “O.D. at 450 nm” value [1] is reported as 0.797.

In the case of “SSNYNYNYNYQYSSR (Peptide having affinity for hair) [Dye-1, reference compound]”, the “ΔE Loss” value ([2]; pH 3.9, 12 shampoo equivalents) is reported as 14.

In the case of LNDQRKPGPPTMPTHSPAVG [BoEn 5], the “O.D. at 450 nm” value [3] is reported as 0.944.

With “KF11-GGG-GHGHQKQHGLGHGHKHGHGHGHGHGK (PNTSQLSTGGGGHGHQKQHGLGHGHKHGHGHGHGHGK; Peptide having affinity for hair) [HC 81]” the “ΔE Retention Ebony Dye Regular Bleached Hair” value [4] was −0.1, the “ΔE Retention Ebony dye with Natural White Hair” value [4] was 0.6 and the “Delta E” value [5] was 31.57. The “ΔE Retention Ebony Dye with 85% Gray Hair” value [6] was 7.58.

In the case of VGTMKQHPTTTQPPRVSATN [BoEn 9], the “O.D. at 450 nm” value [3] is reported as 0.568.

With AANPHTEWDRDAFQLAMPPK [BoEn 1] the “O.D. at 450 nm” value [3] was 1.402.

For NTCATSPNSYTCSN [BoEn 6], the “O.D. at 450 nm” value [3] was 2.38.

With YSETPNDQKPNPHYKVSGTK [BoEn 10] the “O.D. at 450 nm” value [3] was 3.942.

B1: PG-PMMA4A-GAG-PMMA4A-GGSGPGSGG-KF11-GGG-KF11-GGPKK (peptide)
chain: PGHTHHDTHKPWPTDAHRNSSVGAGHTHHDTHKPWPTDAHRNSSVGGSGPGSGGNTSQLSTGGGNTSQLSTGGPKK
modifications: Peptide having affinity for hair
For B1, the “ΔE Loss” value ([2]; pH 5.1, 12 shampoo equivalents) was 11.56 and the “ΔE Loss” value ([2]; pH 8.8, 12 shampoo equivalents) was 6.95.

B2: PG-PMMA9-GAG-PMMA9-GGSGPGSGG-KF11-GS(KGGGS)4-KF11-GGPWKK (peptide)
chain: PGIDTFYMSTMSHSGAGIDTFYMSTMSHSGGSGPGSGGNTSQLSTGSKGGGSKGGGSKGGGSKGGGSNTSQLSTGGPWKK
modifications: Peptide having affinity for hair
With B2 the “ΔE Loss” value ([2]; pH 5.7, 12 shampoo equivalents) was 11.41.

— US20080280810A1, “PEPTIDES HAVING AFFINITY FOR BODY SURFACES” (priority 2006, published 2008)
